Converted amounts (≈) assume the structure as drawn. Read-outs that look alike come from different tables or passages of the source. Positions of bridges follow the written chain, without caps; N, C: chain ends. Non-standard residues stand in square brackets, D forms with d. Residues, ends and D or L forms follow the SMILES beside them. Phe(4-SO3H) = N[C@@H](Cc1ccc(S(=O)(=O)O)cc1)C(=O)O; Lys(N3) = [N-]=[N+]=NCCCC[C@H](N)C(=O)O; R8 = C=CCCCCCC[C@@](C)(N)C(=O)O; Cba = N[C@@H](CC1CCC1)C(=O)O; S5 = C=CCCC[C@](C)(N)C(=O)O; βAla = NCCC(=O)O
Assays:
[1] = Nanoclick permeability assay
Source text: Further, there have been several literature reports[18]–[20] that highlight that the combination of hydrophobic character and positive charge can result in mast cell degranulation (MCD), a potentially fatal condition[18]–[20]. […] The NanoClick assay[22] determines permeability of azide-labeled peptides by combining intracellular copper-free click chemistry with NanoBRET technology. Specifically, if an azido-peptide achieves cytosolic exposure, it will react with a cyclooctyne-decorated Halotag construct that is fused with nanoluciferase. This reaction blocks the click labelling of a subsequently added azido-labeled acceptor dye, thus decreasing the NanoBRET signal in a manner that is target-binding agnostic.
This assay was previously described in detail. The assay was performed in 384-well white assay plates (PerkinElmer CUSG03874) using assay-ready frozen cells that had been transiently transfected with the NanoLuc-HaloTag vector that were thawed at plated in complete media at a density of 6000 cells/ well and incubated at 37 °C 5% CO2 overnight. DIBAC-CA was diluted in assay buffer (OptiMem without phenol red + 1% FBS) and added to cells at a final concentration of 3 μM and incubated at 37 °C 5% CO2 for 1 h. Cells were subsequently centrifuged using a BlueWasher instrument (Blue Cat Bio) to remove the DIBAC-CA solution and washed two times with HBSS (Ca2 + , Mg2 + ). A volume of 30 μL of assay buffer was added back to cell plates. Peptides were serially diluted 4-fold in DMSO with a Hamilton Star apparatus and then delivered into assay plates with an acoustic liquid handler Labcyte ECHO (300 nl, 1% DMSO in-well concentration). After incubating cells with peptide for the desired time (4 or 18 h), the HaloTag ligand, NanoBret618-azide, was added to each well at a final concentration of 10 μM. […] Following addition of NanoBRET Nano-Glo Substrate, donor emission (450 nm) and acceptor emission (610 nm) were measured using an Envision instrument (PerkinElmer).

[2] = Solubility assay (kinetic solubility, PBS pH 7); format: physicochemical; conditions: pH 7, aqueous buffer, kinetic from dmso stock, pH 7, PBS; read-out: Solubility
Outline: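 Std: 10 mM stock → 100 µM in ACN/MeOH/DMSO (10:80:10). Sol. [µM] = (sample peak area / std peak area) × std conc.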

[3] = Experimental LogD (partition coefficient); conditions: not stated, Partition Coeff LogD
[4] = Lactate dehydrogenase (LDH) release assay; format: cell-based
Outline: (§1)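 Read-out was lactate dehydrogenase release, reflecting loss of membrane integrity, in reporter-engineered HCT116 cells (p53-responsive β-lactamase) seeded at 8000 cells per well. Final DMSO was 0.5%, and reported values are geometric means from three or more biological repeats.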

HCT116 cells = test: Lactate dehydrogenase (LDH) release assay; format: cell-based
Outline: as §1

[5] = 0% FBS 4Hr, read-out: LDH: Cytotoxicity assay EC50
[6] = 10% FBS 16Hr, read-out: LDH: Cytotoxicity assay EC50
[7] = Nanoclick permeability assay EC50
[8] = 0% FBS 4Hr, read-out: LDH: Cytotoxicity assay: EC50

Row | SMILES | cell entry EC50 [1] [µM] | solubility kinetic [2] [µM] | logD [3] | cell entry EC50 [1, 7] [µM] | EC50 ([4]; LDH: Cytotoxicity assay: EC50) [µM] | LDH: Cytotoxicity assay: % Effect (HCT116 cells) [%] | EC50 [4, 8] [µM] | LDH: Cytotoxicity assay: % Effect (HCT116 cells; 0% FBS 4Hr) [%] | also measured
1 | CC(=O)N[C@@H](CCCCN=[N+]=[N-])C(=O)NCCC(=O)N[C@@H](CC(C)C)C(=O)N[C@H](C(=O)N[C@@H](Cc1ccccc1)C(=O)N[C@]1(C)CCCCCCC=CCCC[C@@](C)(C(=O)N[C@@H](C)C(=O)N[C@@H](CCC(N)=O)C(=O)N[C@@H](C)C(=O)N[C@@H](C)C(=O)N[C@@H](C)C(=O)N[C@H](C)C(N)=O)NC(=O)[C@H](CC2CCC2)NC(=O)[C@H](CCC(N)=O)NC(=O)[C@H](C)NC(=O)[C@H](Cc2c[nH]c3ccccc23)NC(=O)[C@H](Cc2ccc(O)cc2)NC(=O)[C@H](CCC(=O)O)NC1=O)[C@@H](C)O [MP-966] (Ac-[Lys(N3)][βAla]LTF[R8]EYWAQ[Cba][S5]AQAAA[dA]-NH2; staple 6-13) | 6.1 | 160 (≈ 356 µg/mL) | 3.07 |  |  |  |  |  | EC50 [4, 5]: > 50.7 µM; EC50 [4, 6]: > 50.7 µM; LDH: Cytotoxicity assay % Effect (HCT116 cells; 0% FBS 4Hr): -1.602%; LDH: Cytotoxicity assay % Effect (HCT116 cells; 10% FBS 16Hr): 12.04%
2 | CC(=O)N[C@@H](CCC(=O)O)C(=O)N[C@@H](CCC(=O)O)C(=O)N[C@@H](CCC(=O)O)C(=O)N[C@@H](CCCCN=[N+]=[N-])C(=O)NCCC(=O)N[C@@H](CC(C)C)C(=O)N[C@H](C(=O)N[C@@H](Cc1ccccc1)C(=O)N[C@]1(C)CCCCCCC=CCCC[C@@](C)(C(=O)N[C@@H](CCC(=O)O)C(=O)N[C@@H](CCC(=O)O)C(=O)N[C@@H](CCC(=O)O)C(N)=O)NC(=O)[C@H](CC2CCC2)NC(=O)[C@H](CCC(N)=O)NC(=O)[C@H](C)NC(=O)[C@H](Cc2c[nH]c3ccccc23)NC(=O)[C@H](Cc2ccc(O)cc2)NC(=O)[C@H](CCC(=O)O)NC1=O)[C@@H](C)O [MP-764] (Ac-EEE[Lys(N3)][βAla]LTF[R8]EYWAQ[Cba][S5]EEE-NH2; staple 9-16) |  | 22 (≈ 55.3 µg/mL) | 1.26 | 2.67 | > 50.6 | -1.252 |  |  | 
3 | CC(C)C[C@H](NC(=O)CCNC(=O)[C@@H](N)CCCCN=[N+]=[N-])C(=O)N[C@H](C(=O)N[C@@H](Cc1ccccc1)C(=O)N[C@]1(C)CCCCCCC=CCCC[C@@](C)(C(N)=O)NC(=O)[C@H](CC2CCC2)NC(=O)[C@H](CC(C)C)NC(=O)[C@H](CCC(N)=O)NC(=O)[C@H](Cc2c[nH]c3ccccc23)NC(=O)[C@H](Cc2ccc(O)cc2)NC(=O)[C@H](CCC(=O)O)NC1=O)[C@@H](C)O [MP-329] (H-[Lys(N3)][βAla]LTF[R8]EYWQL[Cba][S5]-NH2; staple 6-13) |  | 5 (≈ 8.71 µg/mL) | 2.71 | 2.69 | > 50.7 |  |  |  | EC50 (HCT116 cells): 50.5 µM
4 | CC(=O)N[C@@H](CCCCN=[N+]=[N-])C(=O)NCCC(=O)N[C@@H](CC(=O)O)C(=O)N[C@H](C(=O)N[C@@H](Cc1ccccc1)C(=O)N[C@]1(C)CCCCCCC=CCCC[C@@](C)(C(=O)N[C@@H](CO)C(=O)N[C@@H](C)C(=O)N[C@@H](C)C(N)=O)NC(=O)[C@H](CC2CCC2)NC(=O)[C@H](CCC(N)=O)NC(=O)[C@H](CC(=O)O)NC(=O)[C@H](Cc2c[nH]c3ccccc23)NC(=O)[C@H](Cc2ccc(O)cc2)NC(=O)[C@H](CC(=O)O)NC1=O)[C@@H](C)O [MP-495, azide-ATSP-7041 (L1D, E5D, A8D)] (Ac-[Lys(N3)][βAla]DTF[R8]DYWDQ[Cba][S5]SAA-NH2; staple 6-13) | 0.327 | 78.7 (≈ 158 µg/mL) | 1.93 |  |  |  | > 50.6 | 1.328 | 
5 | CC(=O)N[C@@H](CCCCN=[N+]=[N-])C(=O)NCCC(=O)N[C@@H](CC(C)C)C(=O)N[C@H](C(=O)N[C@@H](Cc1ccccc1)C(=O)N[C@]1(C)CCCCCCC=CCCC[C@@](C)(C(=O)NCC(=O)NCC(=O)NCC(=O)NCC(=O)NCC(=O)NCC(N)=O)NC(=O)[C@H](CC2CCC2)NC(=O)[C@H](CCC(N)=O)NC(=O)[C@H](C)NC(=O)[C@H](Cc2c[nH]c3ccccc23)NC(=O)[C@H](Cc2ccc(O)cc2)NC(=O)[C@H](CCC(=O)O)NC1=O)[C@@H](C)O [MP-289] (Ac-[Lys(N3)][βAla]LTF[R8]EYWAQ[Cba][S5]GGGGGG-NH2; staple 6-13) | 0.615 | 142 (≈ 296 µg/mL) | 2.58 |  |  |  | > 50.7 | -4.216 | EC50 ([4]; 10% FBS 16Hr, read-out: LDH: Cytotoxicity assay: EC50): > 50.7 µM; LDH: Cytotoxicity assay: % Effect (HCT116 cells; 10% FBS 16Hr): 3.579%
6 | CC(=O)N[C@@H](CCCCN=[N+]=[N-])C(=O)NCCC(=O)N[C@@H](CC(C)C)C(=O)N[C@H](C(=O)N[C@@H](Cc1ccccc1)C(=O)N[C@]1(C)CCCCCCC=CCCC[C@@](C)(C(=O)N[C@@H](C)C(=O)N[C@@H](C)C(=O)N[C@@H](C)C(=O)N[C@@H](CCC(=O)O)C(=O)N[C@@H](C)C(=O)N[C@H](C)C(N)=O)NC(=O)[C@H](CC2CCC2)NC(=O)[C@H](CCC(N)=O)NC(=O)[C@H](C)NC(=O)[C@H](Cc2c[nH]c3ccccc23)NC(=O)[C@H](Cc2ccc(O)cc2)NC(=O)[C@H](CCC(=O)O)NC1=O)[C@@H](C)O [MP-835] (Ac-[Lys(N3)][βAla]LTF[R8]EYWAQ[Cba][S5]AAAEA[dA]-NH2; staple 6-13) | 0.537 | 162 (≈ 361 µg/mL) | 2.16 |  |  |  |  |  | EC50 [4, 5]: > 50.7 µM; EC50 [4, 6]: > 50.7 µM; LDH: Cytotoxicity assay % Effect (HCT116 cells; 0% FBS 4Hr): 3.786%; LDH: Cytotoxicity assay % Effect (HCT116 cells; 10% FBS 16Hr): 22.41%
7 | CC(C)C[C@@H]1NC(=O)[C@H](C)NC(=O)[C@H](Cc2c[nH]c3ccccc23)NC(=O)[C@H](Cc2ccc(O)cc2)NC(=O)[C@H](CCC(=O)O)NC(=O)[C@](C)(NC(=O)[C@H](Cc2ccccc2)NC(=O)[C@H](CO)NC(=O)[C@@H](NC(=O)[C@H](CO)NC(=O)CNC(=O)[C@H](CO)NC(=O)[C@H](CCCCN=[N+]=[N-])NC(=O)[C@H](CCC(=O)O)NC(=O)[C@@H](N)CCC(=O)O)[C@@H](C)O)CCCCCCC=CCCC[C@@](C)(C(N)=O)NC(=O)[C@H](CC(C)C)NC1=O [MP-0181] (H-EE[Lys(N3)]SGSTSF[R8]EYWALL[S5]-NH2; staple 10-17) |  | 106 (≈ 219 µg/mL) | 2.05 | 2.07 | > 50.6 | 9.12 |  |  | 
8 | CC(=O)N[C@@H](CCCCN=[N+]=[N-])C(=O)NCCC(=O)N[C@@H](Cc1ccc(S(=O)(=O)O)cc1)C(=O)N[C@H](C(=O)N[C@@H](Cc1ccccc1)C(=O)N[C@]1(C)CCCCCCC=CCCC[C@@](C)(C(=O)N[C@@H](CO)C(=O)N[C@@H](C)C(=O)N[C@@H](C)C(N)=O)NC(=O)[C@H](CC2CCC2)NC(=O)[C@H](CCC(N)=O)NC(=O)[C@H](C)NC(=O)[C@H](Cc2c[nH]c3ccccc23)NC(=O)[C@H](Cc2ccc(O)cc2)NC(=O)[C@H](CCC(=O)O)NC1=O)[C@@H](C)O [MP-7668] (Ac-[Lys(N3)][βAla][Phe(4-SO3H)]TF[R8]EYWAQ[Cba][S5]SAA-NH2; staple 6-13) |  | 28 (≈ 58.4 µg/mL) | 2.31 | 0.406 | > 50.6 | 2.173 |  |  | 
9 | CC(=O)N[C@@H](CCCCN=[N+]=[N-])C(=O)NCCC(=O)N[C@@H](CC(C)C)C(=O)N[C@H](C(=O)N[C@@H](Cc1ccccc1)C(=O)N[C@]1(C)CCCCCCC=CCCC[C@@](C)(C(=O)N[C@@H](CCC(=O)O)C(=O)N[C@@H](CC(N)=O)C(=O)N[C@@H](Cc2ccccc2)C(N)=O)NC(=O)[C@H](CC2CCC2)NC(=O)[C@H](CCC(N)=O)NC(=O)[C@H](C)NC(=O)[C@H](Cc2c[nH]c3ccccc23)NC(=O)[C@H](Cc2ccc(O)cc2)NC(=O)[C@H](CCC(=O)O)NC1=O)[C@@H](C)O [MP-328] (Ac-[Lys(N3)][βAla]LTF[R8]EYWAQ[Cba][S5]ENF-NH2; staple 6-13) | 0.0663 | 108 (≈ 230 µg/mL) | 2.65 |  |  |  | > 50.6 | -1.88 | 
10 | CC(C)C[C@@H]1NC(=O)[C@H](C)NC(=O)[C@H](Cc2c[nH]c3ccccc23)NC(=O)[C@H](Cc2ccc(O)cc2)NC(=O)[C@H](CCC(=O)O)NC(=O)[C@](C)(NC(=O)[C@H](Cc2ccccc2)NC(=O)[C@H](CO)NC(=O)[C@@H](NC(=O)[C@H](CO)NC(=O)CNC(=O)[C@H](CO)NC(=O)[C@H](CCCCN=[N+]=[N-])NC(=O)[C@H](CCC(=O)O)NC(=O)[C@H](CCC(=O)O)NC(=O)[C@@H](N)CCC(=O)O)[C@@H](C)O)CCCCCCC=CCCC[C@@](C)(C(N)=O)NC(=O)[C@H](CC(C)C)NC1=O [MP-948] (H-EEE[Lys(N3)]SGSTSF[R8]EYWALL[S5]-NH2; staple 11-18) |  | 112 (≈ 245 µg/mL) | 1.48 | > 10 |  |  |  |  | EC50 ([4]; LDH: Cytotoxicity assay EC50): > 50 µM
